Read-outs that look alike come from different tables or passages of the source. Where a SMILES comes first, the peptide text is derived from it. [ ]: non-standard residue; d: D form. Phe(4-NO2) = N[C@@H](Cc1ccc([N+](=O)[O-])cc1)C(=O)O; Phe(4-Cl) = N[C@@H](Cc1ccc(Cl)cc1)C(=O)O; NMeR = CN[C@@H](CCCNC(=N)N)C(=O)O; Aoc = NCCCCCCCC(=O)O; Sar = CNCC(=O)O
Key:
KOP receptor [1] = target: T1, KOP receptor (Homo sapiens, UniProt P41145); assay type: cell-based
[2] = Metabolic stability in rat plasma; assay type: in vitro ADME; conditions: pooled rat plasma, 37°C, peptide 100 μM; for half-life: rat, plasma, read-out: Stability (t1/2) Plasma
Protocol: (§1) Whole blood was collected in-house from adult mixed-gender Wistar rats (RRID: RGD_150520162), and plasma was prepared in 0.2% EDTA as per standard practice. Peptides (final 100 μM) were incubated with pooled rat plasma at 37°C. Samples were collected at different time intervals 0, 5, 10, 15, 30, 60, and 120 min. At each time point, collected samples were immediately added to three volumes of cold ACN. This mixture was vortexed for 30 s and then centrifuged at room temperature (13 K rpm, 5 min). The supernatant was taken and directly placed in glass HPLC vials for LCMS analysis. The protocol for the trypsin stability assay was as for the plasma stability assay except for the […] (bovine pancreatic trypsin 2.5 μg/mL in NH4HCO3 buffer, approx. pH 8–8.5, 37°C).
(§2) Relative concentrations of each peptide from stability assays in plasma or trypsin were analysed using an Agilent binary LC system consisting of an Agilent 1290 Infinity LC pump, Agilent 1,290 auto-sampler coupled with Triple Quad Mass-Spectrometer (MS, model 6460, Agilent Technologies). A bidentate C18 HPLC column (Cogent, 100 Å, […]) with a binary solvent gradient composed of Solvent: A 0.1%v/v formic acid in MQ water and Solvent B: 0.1% v/v formic acid in ACN was used for the separation. The MS parameters were optimised for all compounds to obtain the highest signal in positive Total Ion Current (TIC) mode. Data were analysed using a combination of Microsoft Excel and GraphPad Prism software packages. Data was normalised to time point zero (immediately after compound addition) and expressed in percentages from t = 0. Half-lives were calculated in GraphPad Prism software (v8.3).

[3] = target: T2, bovine pancreatic trypsin (Bos taurus, UniProt P00760); assay: Metabolic stability in trypsin; assay type: in vitro ADME; conditions: bovine pancreatic trypsin 2.5 μg/mL, pH 8-8.5, 37°C, peptide 100 μM; read-out: Stability (t1/2) Trypsin
T2 sequence (P00760 24-246): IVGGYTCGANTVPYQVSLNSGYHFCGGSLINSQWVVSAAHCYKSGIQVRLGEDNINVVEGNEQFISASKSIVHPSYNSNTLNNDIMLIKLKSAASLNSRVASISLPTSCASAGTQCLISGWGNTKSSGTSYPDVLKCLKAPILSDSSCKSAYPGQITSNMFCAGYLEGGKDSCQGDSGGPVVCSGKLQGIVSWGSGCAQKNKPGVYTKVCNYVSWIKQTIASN
Protocol: as §1, §2

DOP receptor = target: T3, DOP receptor (Homo sapiens, UniProt P41143); assay: cell-based
T3 construct: expressed in transfected cells; host or cells: HEK293

MOP receptor = target: T4, MOP receptor (Homo sapiens, UniProt P35372); assay: cell-based
T4 construct: expressed in transfected cells; host or cells: HEK293

[4] = tested on: pERK1/2 in HEK293-KOP receptor cells; assay type: cell-based
[5] = tested on: FCA model of inflammatory nociception; conditions: rat
KOP receptor [6] = target: T1, KOP receptor; assay: cell-based; assay type: cell-based
KOP receptor [7] = target: T1, KOP receptor; assay: biochemical; assay type: binding

T1 sequence (P41145 whole entry): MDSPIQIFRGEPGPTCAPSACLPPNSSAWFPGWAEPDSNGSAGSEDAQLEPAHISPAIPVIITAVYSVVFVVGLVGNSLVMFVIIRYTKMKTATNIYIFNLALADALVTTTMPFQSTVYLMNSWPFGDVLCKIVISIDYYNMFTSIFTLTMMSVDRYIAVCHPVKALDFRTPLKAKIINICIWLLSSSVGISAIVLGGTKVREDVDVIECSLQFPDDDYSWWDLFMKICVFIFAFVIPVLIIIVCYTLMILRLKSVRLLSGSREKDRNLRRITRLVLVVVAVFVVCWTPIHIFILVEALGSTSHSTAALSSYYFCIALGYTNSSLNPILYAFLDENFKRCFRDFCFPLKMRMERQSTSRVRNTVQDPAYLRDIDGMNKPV
T3 sequence (P41143 whole entry): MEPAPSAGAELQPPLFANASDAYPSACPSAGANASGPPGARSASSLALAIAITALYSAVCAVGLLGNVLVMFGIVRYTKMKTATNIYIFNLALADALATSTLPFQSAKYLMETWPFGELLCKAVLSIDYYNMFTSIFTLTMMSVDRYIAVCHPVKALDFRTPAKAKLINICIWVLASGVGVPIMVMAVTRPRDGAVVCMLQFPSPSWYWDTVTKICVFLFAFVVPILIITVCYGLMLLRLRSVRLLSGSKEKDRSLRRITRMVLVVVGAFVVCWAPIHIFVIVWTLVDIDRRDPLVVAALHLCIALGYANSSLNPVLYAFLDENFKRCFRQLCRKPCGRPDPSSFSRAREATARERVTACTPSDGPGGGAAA
T4 sequence (P35372 whole entry): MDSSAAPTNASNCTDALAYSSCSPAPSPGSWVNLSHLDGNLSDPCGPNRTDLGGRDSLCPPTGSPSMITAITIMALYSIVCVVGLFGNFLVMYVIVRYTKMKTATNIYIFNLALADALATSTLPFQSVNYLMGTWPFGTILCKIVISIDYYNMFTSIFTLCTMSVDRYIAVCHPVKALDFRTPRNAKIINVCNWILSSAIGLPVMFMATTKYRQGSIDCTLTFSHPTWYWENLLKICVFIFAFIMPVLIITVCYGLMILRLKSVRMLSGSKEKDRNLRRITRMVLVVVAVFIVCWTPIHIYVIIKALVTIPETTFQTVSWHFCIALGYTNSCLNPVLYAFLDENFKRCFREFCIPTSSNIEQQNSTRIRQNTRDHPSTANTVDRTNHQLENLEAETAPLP

| SMILES | KOP receptor desensitisation (maximal cAMP effect after pre-treatment) (KOP receptor [1]) | half-life [2] | half-life [3] | bias factor β (cAMP versus pERK) [4] | pERK1/2 expression / activity [4] | paw withdrawal threshold in the contralateral (uninflamed, untreated) paw ([5]; in vivo) | EC50 (DOP receptor) | EC50 (MOP receptor) | EC50 (KOP receptor [6]) | selectivity for KOP receptor over MOP receptor and DOP receptor (KOP receptor [6]) | Ki (KOP receptor [7]) | IC50 (KOP receptor [7]; IC50) | further results |
| --- | --- | --- | --- | --- | --- | --- | --- | --- | --- | --- | --- | --- | --- |
| CC(C)C[C@H](NC(=O)[C@H](Cc1ccccc1)NC(=O)CNC(=O)CNC(=O)[C@@H](N)Cc1ccc(O)cc1)C(=O)N[C@@H](CCCNC(=N)N)C(=O)N[C@@H](CCCNC(=N)N)C(=O)O [Dyn 1-7, reference compound] | no discernible desensitisation | 8.1 min | < 1 min | bias towards pERK | time and concentration-dependent pERK expression |  |  |  |  |  |  |  | EC50 (DOP receptor; read-out: Activity (EC50) DOP): 0.87 µM; EC50 (MOP receptor; read-out: Activity (EC50) MOP): 3.74 µM |
| CC(C)C[C@H](NC(=O)[C@H](Cc1ccc([N+](=O)[O-])cc1)NC(=O)CN(C)C(=O)[C@@H](N)Cc1ccc(O)cc1)C(=O)N(C)[C@@H](CCCNC(=N)N)C(=O)N(C)[C@@H](CCCNC(=N)N)C(N)=O [KA311] (H-Y[Sar][Phe(4-NO2)]L[NMeR][NMeR]-NH2) |  |  | > 1000 min |  |  | not observed | > 10 µM | > 10 µM | 0.031 µM | > 1000 fold | 0.18 µM | 1.95 µM |  |
| CC(C)C[C@H](NC(=O)[C@H](Cc1ccc([N+](=O)[O-])cc1)NC(=O)CN(C)C(=O)[C@@H](N)Cc1ccc(O)cc1)C(=O)N[C@@H](CCCNC(=N)N)C(=O)N[C@H](CCCNC(=N)N)C(N)=O [KA204] (H-Y[Sar][Phe(4-NO2)]LR[dR]-NH2) |  | > 60 min | 15.4 min |  |  | not observed | > 10 µM | > 10 µM | 0.0075 µM | > 1000 fold | 0.0028 µM | 0.0302 µM | Stability (t1/2) Plasma [2]: 71 min; IC50 (KOP receptor [7]): 0.0302 µM |
| CC(C)C[C@H](NC(=O)[C@H](Cc1ccc(Cl)cc1)NC(=O)CN(C)C(=O)[C@@H](N)Cc1ccc(O)cc1)C(=O)N[C@@H](CCCNC(=N)N)C(=O)N[C@H](CCCNC(=N)N)C(=O)NCCCCCCCC(N)=O [KA305] (H-Y[Sar][Phe(4-Cl)]LR[dR][Aoc]-NH2) | modest but significant desensitisation |  | 4.9 min | bias towards cAMP | influenced pERK induction at higher concentrations | not observed |  |  |  |  |  |  | overall efficacy (AUC of in vivo effect) [5]: significantly better efficacy than U50488H; Efficacy Index (Ie) ([5]; in vivo): statistically significant higher Ie over morphine; antinociceptive activity (paw withdrawal threshold) ([5]; in vivo): showed antinociceptive activity; effect of naloxone on peptide-induced antinociception ([5]; in vivo): blocked by pre-administration of naloxone; effect on oedema of the affected paw ([5]; in vivo): without effecting oedema; inhibition of peptide cAMP modulation by naloxone (KOP receptor [6]): significantly blocked; Log IC50 (KOP receptor [7]): -7.14; binding affinity to KOP receptor (in words) (KOP receptor [7]): strong binders; IC50 (KOP receptor [7]; read-out: IC50): 0.0726 µM |

From article PMC10020352 (Frontiers in Pharmacology, 2023)
